The values below come from patent publication US20050032042A1, “Anti-retroviral analysis by mass spectrometry” (priority 2003, published 2005).

For series [1] the following is noted: in vivo; cited from earlier work.
For series [2] the following is noted: in vivo; cited from earlier work. The source holds these as a separate data set.
For series [3] the following is noted: cited from earlier work.
For series [4] the following is noted: for Free Plasma (f) vs Total Plasma (tp) regression equation / r, free plasma vs total plasma / Saliva (s) vs Total Plasma (tp) regression equation / r, saliva vs total plasma: human; for Saliva (s) vs Total Plasma (tp) regression equation / r, saliva vs total plasma / correlation of free drug or saliva drug concentration with total drug concentration (in words): in vivo. The procedure: Protein binding and free drug measurement: An Institutional Review Board (IRB) approved protocol was developed for the assessment of free drug concentrations by measuring both the saliva and free drug in plasma utilizing the tandem mass spectrometric methods for plasma or serum measurement. […] A bigger sample is injected for the free drug measurement (50 uL vs 10 uL for plasma/serum.). Free drug concentrations can be measured by using either equilibrium dialysis or, more commonly, devices with molecular cutoff filters such as the Amicon Centrifree micropartition system (Millipore Corporation, Bedford, Mass.) or the Worthington Diagnostics “ultrafree” system (Worthington, Jacksonville, Fla.). Plasma ultrafiltrate is obtained by centrifuging 1 mL of plasma in Amicon system and then deproteinising as described for serum/plasma previously (15, 40).

The term Vd denotes a proportionality between amount in the body and measured concentration, not a real space.

With `CC(C)Nc1cccnc1N1CCN(C(=O)c2cc3cc(NS(C)(=O)=O)ccc3[nH]2)CC1` [Delavirdine], the “Trough Concentration” value in series [1] is 3000 to 8000 ng/mL. Also, in series [2], the C max. was 16000 ng/mL, the C min. is 3000 ng/mL and the “t ½” value is listed as 6 h. Also, the “Protein Bindings %” value in series [3] is recorded as 99%.
As to `O=c1[nH]cnc2c1ncn2[C@H]1CC[C@@H](CO)O1` [Didanosine], in series [4], the “Free Plasma (f) vs Total Plasma (tp) regression equation” value (shortened to “Free Plasma (f) vs Total Plasma”) was “f = 0.19tp + 47”; the “r, free plasma vs total plasma” value turned out to be 0.749; the “Saliva (s) vs Total Plasma (tp) regression equation” value (“Saliva (s) vs Total Plasma” for short) is given as “s = 0.29tp + 20”; the “r, saliva vs total plasma” value turned out to be 0.912. Besides, in series [4], the “correlation of free drug or saliva drug concentration with total drug concentration (in words)” value was “good correlations”. For the same molecule, the “Trough Concentration” value in series [1] was 100 to 300 ng/mL. In series [2], the C max. was 24000 ng/mL and the Vd is 0.8 L/kg.
`CC(C)(C)NC(=O)[C@@H]1CN(Cc2cccnc2)CCN1C[C@@H](O)C[C@@H](Cc1ccccc1)C(=O)N[C@H]1c2ccccc2C[C@H]1O` [Indinavir]: the C max. in series [2] is 10000 ng/mL.
With `Nc1ccn([C@@H]2CS[C@H](CO)O2)c(=O)n1` [Lamivudine], the “Trough Concentration” value in series [1] is 100 to 1000 ng/mL. In series [2], the C max. was 1800 ng/mL.
Take `Cc1cccc(C)c1OCC(=O)N[C@@H](Cc1ccccc1)[C@@H](O)C[C@H](Cc1ccccc1)NC(=O)[C@H](C(C)C)N1CCCNC1=O` [Lopinavir]: in series [4], the “Saliva (s) vs Total Plasma” value is “s = 0.05tp + 194”; the “r, saliva vs total plasma” value is recorded as 0.777; the “correlation of free drug or saliva drug concentration with total drug concentration (in words)” value is recorded as “good correlations”.
For the molecule `Cc1c(O)cccc1C(=O)N[C@@H](CSc1ccccc1)[C@H](O)CN1C[C@H]2CCCC[C@H]2C[C@H]1C(=O)NC(C)(C)C` [Nelfinavir], in series [4], the “Saliva (s) vs Total Plasma” value was “s = 0.0026tp + 78”; the “r, saliva vs total plasma” value was determined as 0.047; the “correlation of free drug or saliva drug concentration with total drug concentration (in words)” value is on record as “not”. In addition, the “Trough Concentration” value in series [1] was 1000 ng/mL. Besides, in series [2], the C max. was 4000 ng/mL, the C min. was 1000 ng/mL, the Vd is 4 L/kg and the “t ½” value is 5 h. Moreover, in series [3], the “Protein Bindings %” value is reported as 98%.
On to `Cc1ccnc2c1NC(=O)c1cccnc1N2C1CC1` [Nevirapine], for which, in series [4], the “Free Plasma (f) vs Total Plasma” value is reported as “f = 0.36tp + 483”; the “r, free plasma vs total plasma” value was 0.909; the “r, saliva vs total plasma” value worked out at 0.901; the “correlation of free drug or saliva drug concentration with total drug concentration (in words)” value is “good correlations”. For the same molecule, in series [1], the “Trough Concentration” value is recorded as 3000 ng/mL. Further, in series [2], the C max. is 20000 ng/mL, the C min. is 3000 ng/mL, the volume of distribution (Vd) is 1.2 L/kg and the “t ½” value is reported as 30 h. Also, the “Protein Bindings %” value in series [3] is given as 60%.
On to `CC(C)c1nc(CN(C)C(=O)N[C@H](C(=O)N[C@@H](Cc2ccccc2)C[C@H](O)[C@H](Cc2ccccc2)NC(=O)OCc2cncs2)C(C)C)cs1` [Ritonavir], for which, in series [4], the “Saliva (s) vs Total Plasma” value is on record as “s = 0.043tp + 109”; the “r, saliva vs total plasma” value was found to be 0.991; the “correlation of free drug or saliva drug concentration with total drug concentration (in words)” value is “good correlations”. Also, in series [1], the “Trough Concentration” value is recorded as 1000 ng/mL. For the same molecule, in series [2], the C max. was 14000 ng/mL, the C min. was 1000 ng/mL, the volume of distribution (Vd) was 0.4 L/kg and the “t ½” value is 4 h.
Regarding `CC(C)(C)NC(=O)[C@@H]1C[C@@H]2CCCC[C@@H]2CN1C[C@@H](O)[C@H](Cc1ccccc1)NC(=O)[C@H](CC(N)=O)NC(=O)c1ccc2ccccc2n1` [Saquinavir], in series [1], the “Trough Concentration” value is 15 to 40 ng/mL. Moreover, in series [2], the C max. is 500 ng/mL, the Vd is 10 L/kg and the “t ½” value is reported as 12 h.
As to `Cc1cn([C@H]2C=C[C@@H](CO)O2)c(=O)[nH]c1=O` [Stavudine], in series [4], the “Free Plasma (f) vs Total Plasma” value is given as “f = 0.66tp − 4”; the “r, free plasma vs total plasma” value is given as 0.924; the “r, saliva vs total plasma” value came to 0.909; the “correlation of free drug or saliva drug concentration with total drug concentration (in words)” value was “good correlations”. For the same molecule, in series [1], the “Trough Concentration” value is 20 ng/mL. In series [2], the C max. was 2000 ng/mL, the C min. was 20 ng/mL, the Vd was 1.0 L/kg and the “t ½” value is recorded as 1.1 h.
With `Nc1ccn([C@H]2CC[C@@H](CO)O2)c(=O)n1` [Zalcitabine], in series [1], the “Trough Concentration” value is recorded as “Undetectable”. Moreover, in series [2], the C max. is <25 ng/mL, the C min. entry is recorded as “undetectable”, the volume of distribution (Vd) is 0.5 L/kg and the “t ½” value is recorded as 2.0 h. The “Protein Bindings %” value in series [3] is <5%.
Turning to `Cc1cn([C@H]2C[C@H](N=[N+]=[N-])[C@@H](CO)O2)c(=O)[nH]c1=O` [Zidovudine], in series [4], the “Free Plasma (f) vs Total Plasma” value is on record as “f = 0.14tp + 27”; the “r, free plasma vs total plasma” value came out at 0.907; the “correlation of free drug or saliva drug concentration with total drug concentration (in words)” value was “good correlations”. Further, the “Trough Concentration” value in series [1] was <20 ng/mL. For the same molecule, in series [2], the C max. is 1800 ng/mL, the C min. was <20 ng/mL, the volume of distribution (Vd) is 1.4 L/kg and the “t ½” value is recorded as 1.2 h. In series [3], the “Protein Bindings %” value is recorded as <5%.
